Source: ChEMBL document CHEMBL4665683, “Oxygenated Geosmins and Plant-like Eudesmanes from a Bacterial Mangrove Endophyte” (2020)

What was measured:
Type in all cases: functional
Staphylococcus aureus [1] = assay: Antibacterial activity against Staphylococcus aureus SG511 assessed as zone of inhibition after 24 hrs by disk diffusion method
Pseudomonas aeruginosa [2] = assay: Antibacterial activity against Pseudomonas aeruginosa BG137 B7 assessed as zone of inhibition after 24 hrs by disk diffusion method
Mycolicibacterium vaccae = assay: Antibacterial activity against Mycobacterium vaccae IMET 10670 assessed as zone of inhibition after 24 hrs by disk diffusion method
Pseudomonas aeruginosa [3] = assay: Antibacterial activity against Pseudomonas aeruginosa K799/61 assessed as zone of inhibition after 24 hrs by disk diffusion method
Enterococcus faecalis = assay: Antibacterial activity against vancomycin-resistant Enterococcus faecalis 1528 R10 assessed as zone of inhibition after 24 hrs by disk diffusion method
Escherichia coli = assay: Antibacterial activity against Escherichia coli SG458 assessed as zone of inhibition after 24 hrs by disk diffusion method
Staphylococcus aureus [4] = assay: Antibacterial activity against methicillin-resistant Staphylococcus aureus 134/94 R9 assessed as zone of inhibition after 24 hrs by disk diffusion method
Bacillus subtilis = assay: Antibacterial activity against Bacillus subtilis ATCC 6633 assessed as zone of inhibition after 24 hrs by disk diffusion method
[5] = test system: Sporobolomyces salmonicolor; assay: Antifungal activity against Sporidiobolus salmonicolor SBUG 549 assessed as zone of inhibition after 24 hrs by disk diffusion method
Penicillium chrysogenum = assay: Antifungal activity against Penicillium chrysogenum JP36 assessed as zone of inhibition after 24 hrs by disk diffusion method

| Structure (SMILES) | inhibition zone (IZ) (Staphylococcus aureus [1]) [mm] | inhibition zone (IZ) (Pseudomonas aeruginosa [2]) [mm] | inhibition zone (IZ) (Mycolicibacterium vaccae) [mm] | inhibition zone (IZ) (Pseudomonas aeruginosa [3]) [mm] | inhibition zone (IZ) (Enterococcus faecalis) [mm] | inhibition zone (IZ) (Escherichia coli) [mm] | inhibition zone (IZ) (Staphylococcus aureus [4]) [mm] | inhibition zone (IZ) (Bacillus subtilis) [mm] | inhibition zone (IZ) [5] [mm] | inhibition zone (IZ) (Penicillium chrysogenum) [mm] |
| --- | --- | --- | --- | --- | --- | --- | --- | --- | --- | --- |
| C[C@H]1CCC[C@@]2(C)CC[C@@H](O)C[C@]12O | 0 | 10 | 0 | 10 | 0 | 10 | 0 | 10 | 0 | 0 |
| C[C@H]1C(=O)CC[C@@]2(C)CCCC[C@]12O | 0 | 10 | 0 | 10 | 10 | 0 | 0 | 10 | 0 | 0 |
| C[C@H]1CCC[C@@]2(C)CC[C@@H](C(C)(C)O)C[C@]12O | 12 | 11 | 14 | 11 | 11 | 10 | 11 | 12 | 12 | 12 |
| C[C@@H]1[C@H](O)[C@@H](C)/C=C/C=C/C=C/C=C/C=C/C=C/C=C/[C@H](O[C@@H]2O[C@H](C)[C@@H](O)[C@H](N)[C@@H]2O)C[C@@H]2O[C@](O)(C[C@@H](O)C[C@@H](O)[C@H](O)CC[C@@H](O)C[C@@H](O)CC(=O)O[C@H]1C)C[C@H](O)[C@H]2C(=O)O [AMPHOTERICIN B] |  |  | 13 |  |  |  |  |  | 13 | 17 |
| O=C(N[C@H](CO)[C@H](O)c1ccc([N+](=O)[O-])cc1)C(Cl)Cl [CHLORAMPHENICOL] | 17 | 24 | 20 | 24 | 17 | 23 | 0 | 29 |  |  |
